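Compound exposure: 48 hours, 5 concentrations, 96-well plates. At the GI50, growth is halved. TGI: concentration producing complete growth inhibition.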
Tests used:
Assay in all cases: inhibition of tumour cell growth, NCI panel, 48 h
HOP-92 NSCLC = tested on: HOP-92 NSCLC
SW-620 colon = tested on: SW-620 colon
SNB-75 CNS = tested on: SNB-75 CNS
SNB-19 CNS = tested on: SNB-19 CNS
SF-539 CNS = tested on: SF-539 CNS
IGROV1 ovarian = tested on: IGROV1 ovarian
HCC-2998 colon = tested on: HCC-2998 colon
UO-31 renal = tested on: UO-31 renal
DU-145 prostate = tested on: DU-145 prostate
HOP-62 NSCLC = tested on: HOP-62 NSCLC
MDA-MB-231 breast = tested on: MDA-MB-231 breast

SMILES	TGI (HOP-92 NSCLC) [µM]	TGI (SW-620 colon) [µM]	TGI (SNB-75 CNS) [µM]	TGI (SNB-19 CNS) [µM]	TGI (SF-539 CNS) [µM]	TGI (IGROV1 ovarian) [µM]	TGI (HCC-2998 colon) [µM]	TGI (UO-31 renal) [µM]	TGI (DU-145 prostate) [µM]	TGI (HOP-62 NSCLC) [µM]	TGI (MDA-MB-231 breast) [µM]	GI50 (DU-145 prostate) [µM]	GI50 (HOP-92 NSCLC) [µM]	GI50 (SNB-75 CNS) [µM]	GI50 (SNB-19 CNS) [µM]	GI50 (SF-539 CNS) [µM]	GI50 (HCC-2998 colon) [µM]	GI50 (MDA-MB-231 breast) [µM]	GI50 (UO-31 renal) [µM]	GI50 (IGROV1 ovarian) [µM]
CCCCCCCCCC/C=C/C=O	> 100	> 100	> 100	> 100	> 100	> 100	> 100	> 100	–	–	–	–	–	–	–	–	–	–	–	–
CN1CCN(c2ccc3[nH]c(C4=C(O)C(=O)[C@@H]5C(=C4O)N=C(CO)N5C)nc3n2)CC1	> 100	> 100	> 100	> 100	> 100	> 100	> 100	> 100	> 100	> 100	> 100	–	–	–	–	–	–	–	–	–
Cc1cc(C)c(NC(=O)/C=C/c2ccccc2)c(C)c1	> 100	> 100	> 100	> 100	> 100	> 100	> 100	> 100	–	> 100	–	–	–	–	–	–	–	–	–	–
C=CC(=O)NCNC(=O)C=C	> 100	> 100	> 100	> 100	> 100	> 100	> 100	> 100	–	> 100	–	–	–	–	–	–	–	–	–	–
O=C1/C(=C/c2ccc(Cl)cc2)N=C(c2ccccc2)N1/N=C/c1ccccc1O	32.9	> 100	31	> 100	26.6	26.4	–	43.4	> 100	5.21	63.3	–	–	–	–	–	–	–	–	–
CCP(=O)(CC)C(Cl)(Cl)C(O)C(Cl)(Cl)Cl (stereo unspecified)	> 100	> 100	> 100	> 100	–	> 100	> 100	> 100	> 100	> 100	> 100	–	–	–	–	–	–	–	–	–
C#C[C@]1(O)[C@@H](CO)O[C@@H](n2ccc(N)nc2=O)[C@@H]1O	12.7	3.92	1.82	> 24	13.5	> 38.1	0.196	0.395	6.22	–	> 100	–	–	–	–	–	–	–	–	–
NCCCn1c2c(c3ccc([N+](=O)[O-])cc3c1=O)C(=O)c1cc(F)ccc1-2	0.845	–	0.268	1.52	0.101	–	0.233	0.19	0.451	–	1.24	< 0.0104	0.0902	0.023	0.0589	0.0288	0.0367	0.422	0.0324	–
COc1cc(/C=C/C(=O)c2ccc(F)cc2)ccc1OCCCCCOc1cc2c(cc1OC)C(=O)N1CCCC1C=N2 (stereo unspecified)	0.575	–	0.187	3.35	0.0301	11.3	0.0382	3.64	0.0579	–	1.96	0.0249	0.158	0.034	< 0.0223	< 0.0166	< 0.0174	0.282	0.0473	0.0646
NC(Cc1ccccc1)c1nn[nH]n1 (stereo unspecified)	> 100	> 100	> 100	> 100	> 100	> 100	–	> 100	> 100	> 100	> 100	–	–	–	–	–	–	–	–	–
CC(C)OC(=O)NNc1cccc(Cl)c1	> 100	> 100	> 100	> 100	> 100	–	> 100	> 100	> 100	> 100	> 100	–	–	–	–	–	–	–	–	–

Source: PubChem BioAssay (NCI)
